Results from patent US4454137A, “Feed compositions containing copper salts of 2-hydroxypyridine-N-oxides” (SmithKline Beckman Corporation, priority 1982, dated 1984).
Where “and” joins values, the source holds several entries; their conditions need not be identical. Equal entries are not always repeated. Where two headings read alike, the source gives them in different places.

Tests used:
[1] = tested on: inoculum (ileal); assay: In vitro swine procedure, ileal inoculum incubation (VFA, lysine, glucose, L-lactic acid); set-up: species or system swine (Yorkshire barrow)
[2] = W. Barker et al., J. Antibiotics 32 1096 (1979); cited from earlier work
[3] = tested on: inoculum (cecal); assay: In vitro swine procedure, cecal inoculum incubation (VFA, lysine, glucose, L-lactic acid); set-up: species or system swine (Yorkshire barrow)
[4] = tested on: post weanling pigs; assay: Post weanling pig feeding test, corn based pre-starter feed (Example 6); format: in vivo; settings: 10 ppm; corn ration
From the text: Each replication contained 8 treatment groups in turn comprising 2 pigs per pen.

[5] = tested on: post weanling pigs; assay: Pig feeding test, corn and rye diets (Example 7); format: in vivo; settings: 10 ppm
Protocol: Each replication contained 8 treatment groups in turn comprising 2 pigs per pen. The experiment was run similar to that of Example 6 except another control having a rye diet was added.

[6] = ileal, 167 ppm, positive control of run 1(a), DMSO series (carrier not given)

## O=[N+]([O-])c1ccc([O-])[n+]([O-])c1.O=[N+]([O-])c1ccc([O-])[n+]([O-])c1.[Cu+2] [5-Nitro-2-hydroxypyridine-N--oxide, Cu^++]
[1]
  LYS (lysine): 109
[1]; ileal, 167 ppm
  GLU (glucose): 110 % of blank control values and 104 % of blank control values
  LAC (L-lactic acid): 160 % of blank control values and 106 % of blank control values
  LYS (lysine): 159 % of blank control values
  VFA (total of volatile fatty acids): 47 % of blank control values and 48 % of blank control values

## O=S(=O)([O-])[O-].[Cu+2] [Copper sulfate]
[1]; ileal, 3.3 ppm
  GLU (glucose): 109 % of blank control values
  LAC (L-lactic acid): 113 % of blank control values
  LYS (lysine): 107 % of blank control values
  VFA (total of volatile fatty acids): 99 % of blank control values
[1]; ileal, 33.3 ppm
  GLU (glucose): 98 % of blank control values
  LAC (L-lactic acid): 104 % of blank control values
  VFA (total of volatile fatty acids): 99 % of blank control values
[1]; ileal, 333.33 ppm
  GLU (glucose): 113 % of blank control values
  LAC (L-lactic acid): 137 % of blank control values
  LYS (lysine): 107 % of blank control values
  VFA (total of volatile fatty acids): 47 % of blank control values

## COc1ccc(=O)n([O-])c1C.COc1ccc(=O)n([O-])c1C.[Cu+2] [copper salt of 2-hydroxy-5-methoxy-6-methylpyridine-N-oxide]
[2]
  antimicrobial activity relative to iron salt and ligand parent: less antimicrobial activity than does either the corresponding iron salt or the ligand parent

## virginiamycin
[1]; ileal, 167 ppm
  GLU (glucose): 133 % of blank control values
  LAC (L-lactic acid): 29 % of blank control values
  LYS (lysine): 134 % of blank control values
[1]; [6]
  GLU (glucose): 101 % of blank control values
  LAC (L-lactic acid): 16 % of blank control values
  LYS (lysine): 167 % of blank control values
  VFA (total of volatile fatty acids): 14 % of blank control values
[3]
  VFA (total of volatile fatty acids): 94
[3]; cecal, 0.17 ppm
  GLU (glucose): 30 % of blank control values
  LYS (lysine): 71 % of blank control values
[3]; cecal, 1.67 ppm
  GLU (glucose): 72 % of blank control values
  LYS (lysine): 74 % of blank control values
  VFA (total of volatile fatty acids): 100 % of blank control values
[3]; cecal, 16.67 ppm
  GLU (glucose): 524 % of blank control values
  LAC (L-lactic acid): 35 % of blank control values
  LYS (lysine): 107 % of blank control values
  VFA (total of volatile fatty acids): 83 % of blank control values
[3]; cecal, 167 ppm
  GLU (glucose): 732 % of blank control values
  LAC (L-lactic acid): 49 % of blank control values
  LYS (lysine): 172 % of blank control values
  VFA (total of volatile fatty acids): 89 % of blank control values
[4]
  Average daily gain (0-21 days): .667
  Feed/gain: 2.56
  Feed/gain, percent in parentheses (control 100%): 97.4%
[5]; Vm + Cont. (corn diet)
  Average Daily Gain, 0-23 days: 0.582 kg
[5]; Vm + Rye (rye diet)
  Average Daily Gain, 0-23 days: 0.529 kg
